For orientation: IC50 means the concentration that gives 50% inhibition.

Chain of HPK1 (Q92918 1-346 limits assumed): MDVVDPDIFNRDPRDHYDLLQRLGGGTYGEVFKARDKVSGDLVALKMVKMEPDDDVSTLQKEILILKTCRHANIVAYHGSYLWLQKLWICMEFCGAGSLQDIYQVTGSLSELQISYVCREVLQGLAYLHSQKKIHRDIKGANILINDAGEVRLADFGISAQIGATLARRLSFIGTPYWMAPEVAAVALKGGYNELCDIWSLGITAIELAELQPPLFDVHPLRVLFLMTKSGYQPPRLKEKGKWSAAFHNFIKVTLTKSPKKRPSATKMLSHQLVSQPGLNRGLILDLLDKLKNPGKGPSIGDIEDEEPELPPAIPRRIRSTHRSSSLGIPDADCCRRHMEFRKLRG

This experiment concerns the target HPK1 (Homo sapiens (Human), UniProt Q92918). The experiment is described as follows: HPK1 Inhibition Assay (ADP-Glo kinase assay). Type of experiment: biochemical. To be noted: ATP 10 μM. Put shortly:
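ADP-Glo luminescence read-out after 1 h room-temperature kinase reaction with 10 μM ATP and 0.1 μg/ml MBP. Recombinant human HPK1 at 7.5 ng/μl; buffer 40 mM Tris pH 7.5, 20 mM MgCl2. Compounds serially diluted 5-fold over 10 points from 10 mM DMSO stock.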
On the technique in general: ADP-Glo first removes unused ATP, then detects ADP through luciferase.
`Cc1nc2c(N3CC[C@H](N)C3)c(NC(=O)c3ccc(=O)n(-c4c(Cl)cccc4Cl)n3)ccc2n1C` [Example 107, (S)—N-(4-(3-aminopyrrolidin-1-yl)-1,2-dimethyl-1H-benzo[d]imidazol-5-yl)-1-(2,6-dichlorophenyl)-6-oxo-1,6-dihydropyridazine-3-carboxamide] yielded an IC50 of 0.1 to 1 µM. Compound `CC(C)c1nc2c(N3CC[C@@H](N)C3)c(NC(=O)c3ccc(=O)n(-c4c(F)cccc4F)n3)ccc2n1C` [Example 109, (R)—N-(4-(3-aminopyrrolidin-1-yl)-2-isopropyl-1-methyl-1H-benzo[d]imidazol-5-yl)-1-(2,6-difluorophenyl)-6-oxo-1,6-dihydropyridazine-3-carboxamide] had an IC50 of under 0.1 µM. To `CC(C)c1nc2c(N3C[C@@H](C)[C@@H](N)C3)c(NC(=O)c3ccc(=O)n(-c4c(F)cccc4F)n3)ccc2n1C` [Example 110, N-(4-((3R,4R)-3-amino-4-methylpyrrolidin-1-yl)-2-isopropyl-1-methyl-1H-benzo[d]imidazol-5-yl)-1-(2,6-difluorophenyl)-6-oxo-1,6-dihydropyridazine-3-carboxamide] belongs under 0.1 µM; to `CC(C)c1nc2c(N3C[C@H](C)[C@@H](N)C3)c(NC(=O)c3ccc(=O)n(-c4c(F)cccc4F)n3)ccc2n1C` [Example 111, N-(4-((3R,4S)-3-amino-4-methylpyrrolidin-1-yl)-2-isopropyl-1-methyl-1H-benzo[d]imidazol-5-yl)-1-(2,6-difluorophenyl)-6-oxo-1,6-dihydropyridazine-3-carboxamide], under 0.1 µM; to `CC(C)c1nc2c(N3CC4C[C@]4(N)C3)c(NC(=O)c3ccc(=O)n(-c4c(F)cccc4F)n3)ccc2n1C` (stereo partly drawn) [Example 112, N-(4-((1R)-1-amino-3-azabicyclo[3.1.0]hexan-3-yl)-2-isopropyl-1-methyl-1H-benzo[d]imidazol-5-yl)-1-(2,6-difluorophenyl)-6-oxo-1,6-dihydropyridazine-3-carboxamide], under 0.1 µM.

Compound `CC(C)c1nc2c(N3C[C@H](N)C4(COC4)C3)c(NC(=O)c3ccc(=O)n(-c4c(F)cccc4F)n3)ccc2n1C` [Example 113, (R)-N-(4-(8-amino-2-oxa-6-azaspiro[3.4]octan-6-yl)-2-isopropyl-1-methyl-1H-benzo[d]imidazol-5-yl)-1-(2,6-difluorophenyl)-6-oxo-1,6-dihydropyridazine-3-carboxamide] had an IC50 of under 0.1 µM. Regarding `CC(C)n1cc2c(N3CC[C@@H](N)C3)c(NC(=O)c3ccc(=O)n(-c4c(F)cccc4F)n3)ccc2n1` [Example 114, (R)-N-(4-(3-aminopyrrolidin-1-yl)-2-isopropyl-2H-indazol-5-yl)-1-(2,6-difluorophenyl)-6-oxo-1,6-dihydropyridazine-3-carboxamide], the IC50 is under 0.1 µM. `CC(C)c1nc2c(N3CC[C@H](CN)C3)c(NC(=O)c3ccc(=O)n(-c4c(F)cccc4F)n3)ccc2n1C` [Example 115, (R)-N-(4-(3-(aminomethyl)pyrrolidin-1-yl)-2-isopropyl-1-methyl-1H-benzo[d]imidazol-5-yl)-1-(2,6-difluorophenyl)-6-oxo-1,6-dihydropyridazine-3-carboxamide] displayed an IC50 of under 0.1 µM. To `CC(C)c1nc2c(N3CC[C@@H](CN)C3)c(NC(=O)c3ccc(=O)n(-c4c(F)cccc4F)n3)ccc2n1C` [Example 116, (S)-N-(4-(3-(aminomethyl)pyrrolidin-1-yl)-2-isopropyl-1-methyl-1H-benzo[d]imidazol-5-yl)-1-(2,6-difluorophenyl)-6-oxo-1,6-dihydropyridazine-3-carboxamide] belongs under 0.1 µM. The figure for `CC(C)c1nc2c(N3CC[C@@H](O)C3)c(NC(=O)c3ccc(=O)n(-c4c(F)cccc4F)n3)ccc2n1C` [Example 117, (R)-1-(2,6-difluorophenyl)-N-(4-(3-hydroxypyrrolidin-1-yl)-2-isopropyl-1-methyl-1H-benzo[d]imidazol-5-yl)-6-oxo-1,6-dihydropyridazine-3-carboxamide] is under 0.1 µM; for `CC(C)c1nc2c(N3CC4[C@@H](N)[C@@H]4C3)c(NC(=O)c3ccc(=O)n(-c4c(F)cccc4F)n3)ccc2n1C` (stereo partly drawn) [Example 118, N-(4-((1R,5S,6s)-6-amino-3-azabicyclo[3.1.0]hexan-3-yl)-2-isopropyl-1-methyl-1H-benzo[d]imidazol-5-yl)-1-(2,6-difluorophenyl)-6-oxo-1,6-dihydropyridazine-3-carboxamide] it is under 0.1 µM; for `CC(C)c1nc2c(N3CC4C(N)C4C3)c(NC(=O)c3ccc(=O)n(-c4c(F)cccc4F)n3)ccc2n1C` [Example 119, N-(4-((1R,5S,6r)-6-amino-3-azabicyclo[3.1.0]hexan-3-yl)-2-isopropyl-1-methyl-1H-benzo[d]imidazol-5-yl)-1-(2,6-difluorophenyl)-6-oxo-1,6-dihydropyridazine-3-carboxamide] it is under 0.1 µM.

`CC(C)c1nc2c(N3CC[C@@H](N)C3)c(NC(=O)c3nn(-c4c(F)cccc4F)c(=O)cc3Cl)ccc2n1C` [Example 120, (R)-N-(4-(3-aminopyrrolidin-1-yl)-2-isopropyl-1-methyl-1H-benzo[d]imidazol-5-yl)-4-chloro-1-(2,6-difluorophenyl)-6-oxo-1,6-dihydropyridazine-3-carboxamide] registered an IC50 of under 0.1 µM. To `CC[C@@]1(N)CCN(c2c(NC(=O)c3ccc(=O)n(-c4c(F)cccc4F)n3)ccc3c2nc(C(C)C)n3C)C1` [Example 121, (R)-N-(4-(3-amino-3-ethylpyrrolidin-1-yl)-2-isopropyl-1-methyl-1H-benzo[d]imidazol-5-yl)-1-(2,6-difluorophenyl)-6-oxo-1,6-dihydropyridazine-3-carboxamide] belongs under 0.1 µM; to `CC[C@]1(N)CCN(c2c(NC(=O)c3ccc(=O)n(-c4c(F)cccc4F)n3)ccc3c2nc(C(C)C)n3C)C1` [Example 122, (S)-N-(4-(3-amino-3-ethylpyrrolidin-1-yl)-2-isopropyl-1-methyl-1H-benzo[d]imidazol-5-yl)-1-(2,6-difluorophenyl)-6-oxo-1,6-dihydropyridazine-3-carboxamide], under 0.1 µM.

`CC(C)c1nc2c(N3CC[C@@](C)(N)C3)c(NC(=O)c3ccc(=O)n(-c4c(F)cccc4F)n3)ccc2n1C` [Example 123, (R)-N-(4-(3-amino-3-methylpyrrolidin-1-yl)-2-isopropyl-1-methyl-1H-benzo[d]imidazol-5-yl)-1-(2,6-difluorophenyl)-6-oxo-1,6-dihydropyridazine-3-carboxamide] displayed an IC50 of under 0.1 µM. To `CC(C)c1nc2c(N3CC[C@@H](N(C)C)C3)c(NC(=O)c3ccc(=O)n(-c4c(F)cccc4F)n3)ccc2n1C` [Example 126, (R)-1-(2,6-difluorophenyl)-N-(4-(3-(dimethylamino)pyrrolidin-1-yl)-2-isopropyl-1-methyl-1H-benzo[d]imidazol-5-yl)-6-oxo-1,6-dihydropyridazine-3-carboxamide] belongs under 0.1 µM; to `CN[C@@H]1CCN(c2c(NC(=O)c3ccc(=O)n(-c4c(F)cccc4F)n3)ccc3c2nc(C(C)C)n3C)C1` [Example 127, (R)-1-(2,6-difluorophenyl)-N-(2-isopropyl-1-methyl-4-(3-(methylamino)pyrrolidin-1-yl)-1H-benzo[d]imidazol-5-yl)-6-oxo-1,6-dihydropyridazine-3-carboxamide], under 0.1 µM; to `CC(C)c1nc2c(N3CC[C@@H](NC(=O)CCN)C3)c(NC(=O)c3ccc(=O)n(-c4c(F)cccc4F)n3)ccc2n1C` [Example 128, (R)-N-(4-(3-(3-aminopropanamido)pyrrolidin-1-yl)-2-isopropyl-1-methyl-1H-benzo[d]imidazol-5-yl)-1-(2,6-difluorophenyl)-6-oxo-1,6-dihydropyridazine-3-carboxamide], under 0.1 µM. To `CC(C)c1nc2c(N3CC[C@@H](NCC(C)(C)O)C3)c(NC(=O)c3ccc(=O)n(-c4c(F)cccc4F)n3)ccc2n1C` [Example 129, (R)-1-(2,6-difluorophenyl)-N-(4-(3-((2-hydroxy-2-methylpropyl)amino)pyrrolidin-1-yl)-2-isopropyl-1-methyl-1H-benzo[d]imidazol-5-yl)-6-oxo-1,6-dihydropyridazine-3-carboxamide] belongs under 0.1 µM; to `CC(C)c1nc2c(N3CC[C@@H](NCCO)C3)c(NC(=O)c3ccc(=O)n(-c4c(F)cccc4F)n3)ccc2n1C` [Example 130, (R)-1-(2,6-difluorophenyl)-N-(4-(3-((2-hydroxyethyl)amino)pyrrolidin-1-yl)-2-isopropyl-1-methyl-1H-benzo[d]imidazol-5-yl)-6-oxo-1,6-dihydropyridazine-3-carboxamide], under 0.1 µM; to `CC(C)c1nc2c(N3CC[C@@H](NC(=O)CN)C3)c(NC(=O)c3ccc(=O)n(-c4c(F)cccc4F)n3)ccc2n1C` [Example 131, (R)-N-(4-(3-(2-aminoacetamido)pyrrolidin-1-yl)-2-isopropyl-1-methyl-1H-benzo[d]imidazol-5-yl)-1-(2,6-difluorophenyl)-6-oxo-1,6-dihydropyridazine-3-carboxamide], under 0.1 µM. To `CC(C)c1nc2c(N3CC[C@H](N)C3)c(NC(=O)c3ccc(=O)n(-c4c(F)cccc4F)n3)ccc2n1C` [Example 132, (S)-N-(4-(3-aminopyrrolidin-1-yl)-2-isopropyl-1-methyl-1H-benzo[d]imidazol-5-yl)-1-(2,6-difluorophenyl)-6-oxo-1,6-dihydropyridazine-3-carboxamide] belongs under 0.1 µM.

Regarding `CC(C)c1nc2c(N3CCC(N)CC3)c(NC(=O)c3ccc(=O)n(-c4c(F)cccc4F)n3)ccc2n1C` [Example 133, N-(4-(4-aminopiperidin-1-yl)-2-isopropyl-1-methyl-1H-benzo[d]imidazol-5-yl)-1-(2,6-difluorophenyl)-6-oxo-1,6-dihydropyridazine-3-carboxamide], the IC50 was under 0.1 µM. The figure for `CC(C)c1nc2c(N3CCC[C@H]3CN)c(NC(=O)c3ccc(=O)n(-c4c(F)cccc4F)n3)ccc2n1C` [Example 134, (S)-N-(4-(2-(aminomethyl)pyrrolidin-1-yl)-2-isopropyl-1-methyl-1H-benzo[d]imidazol-5-yl)-1-(2,6-difluorophenyl)-6-oxo-1,6-dihydropyridazine-3-carboxamide] is under 0.1 µM.

The values above are taken from US20250122174A1 (Shenzhen Yuanli Shenwan Innovative Medicine Co., Ltd., priority 2022, published 2025).
